Reference: patent US5030760A, “Tetrahydrophthalimides, and their production and use” (Sumitomo Chemical Company, Ltd., priority 1981, dated 1991)

What was measured:
corn = assay: Test Example 1, foliar treatment, phytotoxicity to corn; type: in vivo; conditions: 3 weeks
In short: (§1)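 Plants were sown in upland soil and grown 2 weeks in a greenhouse, then sprayed on the foliage with the compound as an emulsifiable concentrate dispersed in water with a spreading agent (5 liters per are). After 3 further weeks, aerial fresh weight relative to untreated (taken as 100) was converted to a rating.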

wild oat = assay: Test Example 1, foliar treatment, herbicidal activity; type: in vivo, Avena fatua; conditions: 3 weeks
In short: as §1

cocklebur = assay: Test Example 2, field foliar treatment, herbicidal activity; type: in vivo, Xanthium pennsylvanicum; conditions: 3 weeks
Method: (§2) The application of the tetrahydrophthalimides (I) as herbicides will be illustratively shown in the following Examples wherein the phytotoxicity to cultivated plants and the herbicidal activity on weeds were evaluated as follows: the aerial parts of the test plants were cut off and weighed (fresh weight); the percentage of the fresh weight of the treated plant to that of the untreated plant was calculated with the latter fresh weight taken as 100; and the crop damage and the herbicidal activity were evaluated by the standard given in the table below. The rating values of phytotoxicity, 0 and 1, and those of herbicidal effect, 5 and 4, are generally regarded as satisfactory to protect cultivated plants and control weeds, respectively. The rating values in the paddy field test alone were calculated from the dry weight of the test plants.
(§3) Seeds of corn and broad-leaved weeds such as cocklebur, common purslane and tall morningglory were sown in the field as previously laid up in ridges, each ridge having an upper width of 1 m. At the time when the corn grew up to the 6-leaf stage and the broad-leaved weeds up to 2 to 5-leaf stages, a designed amount of the test compound formulated into an emulsifiable concentrate according to Preparation Example 2 and dispersed in water was sprayed to the foliage of the test plants with three replications over the top by means of a small hand sprayer at a spray volume of 5 liters per are. After cultivation for 3 weeks, herbicidal activity and phytotoxicity were examined.

common purslane = assay: as above; type: in vivo, Portulaca oleracea; conditions: 3 weeks
Method: as §2, §3

tall morningglory = assay: Test Example 3, soil surface spraying, herbicidal activity; type: in vivo, Ipomoea purpurea; conditions: 20 days
Method: as §2
(§4) Plastic trays (35 cm×25 cm×15 cm) were filled with upland field soil, and the seeds of tall morningglory, velvetleaf and sicklepod and the seeds of corn were sown therein. A designed amount of the test compounds formulated into a wettable powder according to Preparation Example 1 was dispersed in water and applied by spraying at a spray volume of 5 liters per are to the whole surface of the soil. After the spraying, the test plants were placed in a greenhouse and grown for 20 days, and herbicidal activity and phytotoxicity were examined.

sicklepod = assay: as above; type: in vivo, Cassia obtusifolia; conditions: 20 days
Method: as §2, §4

morningglory = assay: Test Example 4, pre-emergence treatment, herbicidal activity; type: in vivo; conditions: 20 days
In short: (§5)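 Emulsifiable concentrate of compound in water with spreading agent is sprayed on the soil surface right after seeding (5 liters per are). Following 20 days' greenhouse growth, cut aerial parts are weighed and the percentage of untreated fresh weight is converted to a damage or efficacy rating.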

velvetleaf = assay: as above; type: in vivo, Abutilon theophrasti; conditions: 20 days
In short: as §5

green foxtail = assay: as above; type: in vivo, Setaria viridis; conditions: 20 days
In short: as §5

soybean = assay: Test Example 5, spraying over the top, phytotoxicity to soybean; type: in vivo; conditions: sprayed over the top, 20 days
Method: as §2
(§6) Plastic trays (35 cm×25 cm×15 cm) were filled with upland field soil, and the seeds of tall morningglory, velvetleaf, jimsonweed, sicklepod, hemp sesbania, prickly side, Johnsongrass, green foxtail and large crabgrass and the seeds of soybean were sown therein. A designed amount of the test compound formulated into a wettable powder according to Preparation Example 1 and dispersed in water was sprayed over the top by means of a small hand sprayer at a spray volume of 5 liters per are. After the spraying, the test plants were grown in greenhouse for 20 days, and phytotoxicity and herbicidal activity were examined.

prickly sida = assay: Test Example 5, spraying over the top, herbicidal activity; type: in vivo, Sida spinosa; conditions: sprayed over the top, 20 days
Method: as §2, §6

Johnsongrass = assay: as above; type: in vivo, Sorghum halepense; conditions: sprayed over the top, 20 days
Method: as §2, §6

broad-leaved weed = assay: Test Example 6, paddy pot perfusion, herbicidal activity; type: in vivo, monochoria, false pimpernel, toothcup; conditions: 3 weeks, dry weight
Method: as §2
(§7) Wagner's pots (1/5000 are) were filled with paddy field soil containing the seeds of broad-leaved weeds (e.g. monochoria, false pimpernel, toothcup) and the seeds of barnyardgrass and hardstem bulrush, and water was poured therein until the depth of water became 4 cm. Rice seedlings of the 3.5-leaf stage and the tubers of arrowhead were transplanted therein and grown for 2 days in a greenhouse. A designed amount of the test compound formulated in an emulsifiable concentrate according to Preparation Example 2 was applied to the pots by perfusion. Thereafter, the test plants were grown for an additional 3 weeks in the greenhouse, and herbicidal activity and phytotoxicity were examined. In this treatment, the emulsifiable concentrate was dispersed in water for application at a perfusion volume of 10 liters per are.

hardstem bulrush = assay: as above; type: in vivo, Scirpus juncoides; conditions: 3 weeks, dry weight
Method: as §2, §7

barnyardgrass = assay: Test Example 7, flooded paddy pot dripping, herbicidal activity; type: in vivo, Echinochloa crus-galli; conditions: 3 weeks
Method: as §2
Wagner's pots (1/5000 are) were filled with paddy field soil and water was poured therein to make a flooded condition. Rice seedlings of the 3-leaf stage were transplanted and tubers of slender spikerush and arrowhead and the seeds of barnyardgrass, monochoria and broad-leaved weed were sowed therein and grown for 5 days. When germination occurs, a designed amount of the test compound formulated into an emulsifiable concentrate according to Preparation Example 2 was applied to the pots by dripping. The test plants were grown for a further 3 weeks, and herbicidal activity and phytotoxicity were examined. The herbicidal activity was evaluated in figures ranging from 0 to 5. The phytotoxicity to the crop plants was also indicated on the same standard as that of the herbicidal activity.
Also: ranges in brackets are in %.

Compound	Phytotoxicity, Corn (corn; 1.25 g/are)	Phytotoxicity, Corn (corn; 5 g/are)	Herbicidal activity, Wild cat (wild oat; 1.25 g/are)	Herbicidal activity, Wild cat (wild oat; 5 g/are)	Herbicidal activity, Cocklebur (cocklebur; 0.63 g/are)	Herbicidal activity, Cocklebur (cocklebur; 1.25 g/are)	Herbicidal activity, Common purslane (common purslane; 0.63 g/are)	Herbicidal activity, Common purslane (common purslane; 1.25 g/are)	Herbicidal activity, Tall morningglory (tall morningglory; 5 g/are)	Herbicidal activity, Tall morningglory (tall morningglory; 10 g/are)	Herbicidal activity, Sicklepod (sicklepod; 5 g/are)	Herbicidal activity, Sicklepod (sicklepod; 10 g/are)	Phytotoxicity, Soybean (soybean; 10 g/are)	Phytotoxicity, Soybean (soybean; 20 g/are)	Herbicidal activity, Prickly sida (prickly sida; 10 g/are)	Herbicidal activity, Prickly sida (prickly sida; 20 g/are)	Herbicidal activity, Johnsongrass (Johnsongrass; 10 g/are)	Herbicidal activity, Johnsongrass (Johnsongrass; 20 g/are)	Herbicidal activity, Broad-leaved weed (broad-leaved weed; 1.25 g/are)	Herbicidal activity, Broad-leaved weed (broad-leaved weed; 2.5 g/are)	also measured
O=C1C2=C(CCCC2)C(=O)N1c1ccc(Cl)cc1F [A, 2-fluoro-4-chlorophenyltetrahydrophthalimide, reference compound]	1 (90-99)	2 (80-89)	0 (61-100)	1 (41-60)	1 (41-60)	4 (1-10)	2 (21-40)	3 (11-20)	0 (61-100)	0 (61-100)	0 (61-100)	1 (41-60)	1 (90-99)	2 (80-89)	5 (0)	5 (0)	4 (1-10)	5 (0)	5 (0)	5 (0)	Herbicidal activity, Morningglory (morningglory; 2.5 g/are): 1 (41-60); Herbicidal activity, Morningglory (morningglory; 10 g/are): 2 (21-40); Herbicidal activity, Velvetleaf (velvetleaf; 2.5 g/are): 4 (1-10); Herbicidal activity, Velvetleaf (velvetleaf; 10 g/are): 5 (0); Herbicidal activity, Green foxtail (green foxtail; 2.5 g/are): 1 (41-60); Herbicidal activity, Green foxtail (green foxtail; 10 g/are): 4 (1-10); Herbicidal activity, Hardstem bulrush (hardstem bulrush; 1.25 g/are): 2 (21-40); Herbicidal activity, Hardstem bulrush (hardstem bulrush; 2.5 g/are): 3 (11-20); Herbicidal activity, Barnyardgrass (barnyardgrass; 2.5 g/are): 1 (10-29); Herbicidal activity, Barnyardgrass (barnyardgrass; 5 g/are): 3 (50-69); Herbicidal activity, Barnyardgrass (barnyardgrass; 10 g/are): 4 (70-89)
CC(C)Oc1cc(N2C(=O)C3=C(CCCC3)C2=O)c(Cl)cc1Cl [B, 2,4-dichloro-5-isopropoxyphenyltetrahydrophthalimide, reference compound]	0 (100)	1 (90-99)	0 (61-100)	1 (41-60)	2 (21-40)	4 (1-10)	3 (11-20)	4 (1-10)	0 (61-100)	0 (61-100)	0 (61-100)	1 (41-60)	0 (100)	0 (100)	3 (11-20)	4 (1-10)	2 (21-40)	3 (11-20)	5 (0)	5 (0)	Herbicidal activity, Morningglory (morningglory; 5 g/are): 0 (61-100); Herbicidal activity, Morningglory (morningglory; 20 g/are): 1 (41-60); Herbicidal activity, Velvetleaf (velvetleaf; 5 g/are): 1 (41-60); Herbicidal activity, Velvetleaf (velvetleaf; 20 g/are): 3 (11-20); Herbicidal activity, Green foxtail (green foxtail; 5 g/are): 0 (61-100); Herbicidal activity, Green foxtail (green foxtail; 20 g/are): 0 (61-100); Herbicidal activity, Hardstem bulrush (hardstem bulrush; 1.25 g/are): 1 (41-60); Herbicidal activity, Hardstem bulrush (hardstem bulrush; 2.5 g/are): 2 (21-40)
